Experimental data published in article PMC6273488, “Synthesis and Biological Evaluation of Benzochromenopyrimidinones as Cholinesterase Inhibitors and Potent Antioxidant, Non-Hepatotoxic Agents for Alzheimer’s Disease” (Molecules, 2016).
Entries after “also recorded” stand apart in the source; their conditions may differ.

Tests used:
[1] = molecular target: T1, Electrophorus electricus AChE (EeAChE) (Electrophorus electricus, UniProt O42275); assay: Inhibition of EeAChE (Ellman's assay); format: biochemical; settings: mean ± SEM, at least three independent experiments
T1 construct: purified AChE from Electrophorus electricus (Type V-S, Sigma-Aldrich); purchased Sigma-Aldrich Type V-S
T1 sequence (O42275 24-633): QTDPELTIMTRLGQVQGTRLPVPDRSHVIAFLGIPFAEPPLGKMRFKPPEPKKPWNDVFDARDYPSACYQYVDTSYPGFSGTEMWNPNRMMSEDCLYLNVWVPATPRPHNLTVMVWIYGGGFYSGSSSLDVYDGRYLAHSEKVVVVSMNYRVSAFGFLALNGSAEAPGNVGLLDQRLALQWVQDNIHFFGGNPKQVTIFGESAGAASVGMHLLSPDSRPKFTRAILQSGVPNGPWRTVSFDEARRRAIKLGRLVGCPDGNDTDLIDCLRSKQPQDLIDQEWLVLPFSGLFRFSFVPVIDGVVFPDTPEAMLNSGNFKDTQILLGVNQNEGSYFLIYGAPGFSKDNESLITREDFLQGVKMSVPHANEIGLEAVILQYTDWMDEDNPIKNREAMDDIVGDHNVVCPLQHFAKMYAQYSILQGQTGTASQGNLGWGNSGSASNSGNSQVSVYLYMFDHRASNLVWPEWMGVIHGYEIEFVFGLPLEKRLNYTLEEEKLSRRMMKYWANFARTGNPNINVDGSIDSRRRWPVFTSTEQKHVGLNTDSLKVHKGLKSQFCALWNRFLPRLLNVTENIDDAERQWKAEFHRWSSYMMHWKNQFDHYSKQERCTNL
Experimental: (§1) For the preliminary screening of the inhibitory potencies, Electrophorus electricus AChE (EeAChE) and horse serum BuChE (eqBuChE) were used following the Ellman’s assay.
(§2) Assessment of the inhibitory power of BCPOs was performed following the spectrophotometric method of Ellman using purified AChE from Electrophorus electricus (Type V-S, Sigma-Aldrich) or BuChE from horse serum (lyophilized powder, Sigma-Aldrich). Enzymes were first dissolved in 0.1 M phosphate buffer (pH 8.0) and then aliquoted in small vials for easy handling. Compounds stock solutions in DMSO (10 mM) were diluted when necessary with DMSO to prepare appropriate dilutions of each compound. The assay was performed in a final volume of 3 mL of a 0.1 M phosphate-buffered solution at pH 8.0, containing 5,5′-dithiobis-2-nitrobenzoic acid (DTNB, 2625 µL, 0.35 mM, final concentration), EeAChE (29 µL, 0.035 U/mL final concentration) or eqBuChE (60 µL, 0.05 U/mL final concentration) tested compound (3 µL, different concentrations) and 1% (w/v) Bovine Albumin Serum phosphate-buffered (pH 8.0) solution (BSA, 40 µL). The inhibition in comparison to control without compound was determined by pre-incubating this blend at room temperature with each compound at nine different concentrations for 10 min. Then, acetylthiocholine iodide (105 µL, 0.35 mM, final concentration) or butyrylthiocholine iodide (150 µL, 0.5 mM final concentration) was added and incubated for another 15 min at rt. […] Calculation of IC50 values was performed with GraphPad Prism 5. Each concentration was measured in triplicate. Data are expressed as mean ± SEM.

[2] = molecular target: T2, horse serum BuChE (eqBuChE) (Equus caballus, UniProt P81908); assay: Inhibition of eqBuChE (Ellman's assay); format: biochemical; settings: 10 µM compound
T2 construct: BuChE from horse serum (lyophilized powder, Sigma-Aldrich); purchased Sigma-Aldrich; host or cells: horse serum
T2 sequence (P81908 whole entry): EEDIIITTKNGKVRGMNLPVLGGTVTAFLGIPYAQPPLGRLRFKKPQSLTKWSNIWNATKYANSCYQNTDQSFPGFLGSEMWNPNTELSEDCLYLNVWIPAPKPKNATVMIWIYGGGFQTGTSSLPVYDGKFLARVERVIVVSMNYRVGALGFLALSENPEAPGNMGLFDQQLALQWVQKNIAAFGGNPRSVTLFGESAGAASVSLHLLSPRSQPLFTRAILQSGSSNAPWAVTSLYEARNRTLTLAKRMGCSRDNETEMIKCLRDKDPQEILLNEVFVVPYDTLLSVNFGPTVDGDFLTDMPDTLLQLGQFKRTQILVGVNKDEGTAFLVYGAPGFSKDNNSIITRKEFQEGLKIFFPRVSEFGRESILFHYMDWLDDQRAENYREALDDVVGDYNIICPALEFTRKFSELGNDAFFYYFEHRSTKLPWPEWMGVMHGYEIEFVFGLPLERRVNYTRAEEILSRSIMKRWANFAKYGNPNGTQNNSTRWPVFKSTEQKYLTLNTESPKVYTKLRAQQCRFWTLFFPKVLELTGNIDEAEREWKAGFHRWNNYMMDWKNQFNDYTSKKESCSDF
Experimental: as §1, §2

in vitro = format: cell-based; settings: human, HepG2 cells, 24 h, MTT, read-out: In vitro toxicity (% cell viability); for viability at 24 h, 1 µM: HepG2, 1 µM; for viability at 24 h, 3 µM: HepG2, 3 µM; for viability at 24 h, 10 µM: HepG2, 10 µM; for viability at 24 h, 30 µM: HepG2, 30 µM; for viability at 24 h, 100 µM: HepG2, 100 µM; for viability at 24 h, 300 µM: HepG2, 300 µM; for viability at 24 h, 1 mM: HepG2, 1 mM
Experimental: (§3) A prerequisite for any effective lead drug is to keep its cytotoxicity at the lowest possible level. In this regard, we submitted the four most promising compounds (3Ab, 3Bb, 3Cb and 3Ba) to an in vitro toxicologic evaluation (MTT assay) using human hepatocellular carcinoma cell line (HepG2) which represents a good probe to evaluate hepatotoxic effects. […].
(§4) HepG2 cells were purchased from American Type Culture Collection. The cells were cultured in Eagle’s Minimum Essential Medium (Ozyme, France) supplemented with 10% fetal bovine serum, 1X non-essential amino acids, 100 units/mL penicillin and […] streptomycin (Dutscher, Brumath, France). Cultures were kept under a CO2/air (5%/95%) humidified atmosphere at 37 °C. Prior to the experiment, cells were seeded in 96-well culture plates at a density of 0.1 × 10^6 cells per well. After 24 h of incubation, the culture medium was refreshed and 100 µL of the test compounds or DMSO (0.1%) were added. […] For the MTT assay, after 24 h of treatment, cells were incubated with 50 µL MTT (0.5 mg/mL, Sigma Aldrich, city, France) at 37 °C for 2 h. Plates were centrifuged, MTT was removed and 100 µL DMSO was distributed per well. The absorbance at 570 nm was measured using microplate reader (brand). Cell viability was expressed as percentage of cell viability compared to controls (DMSO, 0.1%).

HepG2 cells = assay: in vitro; format: cell-based; settings: HepG2, MTT, concentrations up to 1000 μM
Experimental: as §3, §4

[3] = Solubility in DMSO (footnote remark); format: physicochemical; settings: DMSO at 10 mM and 1 mM
[4] = molecular target: T3, human recombinant AChE (hAChE) (Homo sapiens, UniProt P22303); assay: Kinetic characterization of hAChE inhibition (Lineweaver-Burk); format: biochemical
T3 construct: purchased Sigma-Aldrich
T3 sequence (P22303 32-614): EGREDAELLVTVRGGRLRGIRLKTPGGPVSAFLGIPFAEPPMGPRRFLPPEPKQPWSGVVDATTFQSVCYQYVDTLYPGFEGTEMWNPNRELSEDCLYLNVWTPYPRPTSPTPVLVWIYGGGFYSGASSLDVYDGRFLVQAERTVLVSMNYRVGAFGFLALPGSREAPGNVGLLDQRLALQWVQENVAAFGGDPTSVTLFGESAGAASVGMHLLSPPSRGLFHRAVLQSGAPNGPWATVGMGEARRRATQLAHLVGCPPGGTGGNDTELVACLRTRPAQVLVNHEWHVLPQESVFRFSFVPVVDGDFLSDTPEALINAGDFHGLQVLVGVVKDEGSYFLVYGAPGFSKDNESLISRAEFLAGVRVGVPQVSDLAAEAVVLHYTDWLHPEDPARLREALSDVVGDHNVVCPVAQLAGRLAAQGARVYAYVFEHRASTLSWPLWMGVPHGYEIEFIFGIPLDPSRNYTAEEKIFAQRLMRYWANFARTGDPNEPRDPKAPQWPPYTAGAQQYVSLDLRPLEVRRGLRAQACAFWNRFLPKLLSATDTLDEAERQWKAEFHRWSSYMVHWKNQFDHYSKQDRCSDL
Experimental: To get insight into the mode of inhibition, the kinetic mechanism of hAChE inhibition by compound 3Bb was investigated through classical Lineweaver-Burk double reciprocal plots.
To estimate the type of inhibition of hAChE, we performed the same experimental protocol as reported for hAChE inhibition. […]. The stock solution of ATC (0.5 mM in a well) was prepared in demineralized water and diluted before use to obtain 0.4, 0.3, 0.2, 0.1 and 0.067 mM substrate solutions. The double reciprocal plots were analysed by a weighted least square procedure that assumed the variance of V to be constant. Each experiment was performed in triplicate. To confirm the mode of inhibition, Cornish-Bowden plots were obtained by plotting S/V (substrate/velocity ratio) versus the inhibitor concentration. Data analysis was performed with GraphPad Prism 5. Inhibition constant (Ki) values were determined by re-plotting slopes from the Lineweaver-Burk plot versus the inhibitor concentration where Ki was determined as the intersect of the line with the x-axis.

Row | SMILES | IC50 [1] [nM] | inhibition at 10 µM [2] [%] | viability at 24 h, 1 µM (in vitro) [%] | viability at 24 h, 3 µM (in vitro) [%] | viability at 24 h, 10 µM (in vitro) [%] | viability at 24 h, 30 µM (in vitro) [%] | viability at 24 h, 100 µM (in vitro) [%] | viability at 24 h, 300 µM (in vitro) [%] | viability at 24 h, 1 mM (in vitro) [%] | hepatotoxicity on HepG2 cells (in words) (HepG2 cells) | solubility in DMSO (in words) [3] | mode of hAChE inhibition ([4]; Lineweaver-Burk double reciprocal plot) | Ki ([4]; estimated from Lineweaver-Burk replots, read-out: Ki (dissociation constant for the enzyme-inhibitor complex)) [nM]
1 | COc1cccc(C2c3c(nc4n(c3=O)CCC4)Oc3ccc4ccccc4c32)c1 (stereo not shown) [3Ba, 14-(3′Methoxyphenyl)-10,11-dihydro-14H-benzo[5,6]chromeno[2,3-d]pyrrolo[1,2-a]pyrimidin-13(9H)-one] | 60.7 ± 4.5 | 51 ± 4 | 109 ± 2 | 108 ± 4.8 | 106 ± 3.5 | 99.2 ± 4.2 | 97 ± 5.4 | 108 ± 2.8 | 120 ± 6.8 | non-hepatotoxic |  |  | 
2 | O=c1c2c(nc3n1CCCC3)Oc1ccc3ccccc3c1C2c1ccccc1 (stereo not shown) [3Ab, 15-Phenyl-10,11,12,15-tetrahydro-9H-benzo[5,6]chromeno[2,3-d]pyrido[1,2-a]pyrimidin-14-one] | 55.5 ± 7.1 | 31.2 ± 1.8 | 99.3 ± 4 | 95.3 ± 2.3 | 98.5 ± 2.5 | 91.5 ± 4.5 | 101 ± 3.1 | 110 ± 5.5 | 110 ± 4.4 | non-hepatotoxic |  |  | 
3 | Cc1ccc(C2c3c(nc4n(c3=O)CCCC4)Oc3ccc4ccccc4c32)cc1 (stereo not shown) [3Cb, 15-(4′-Methylphenyl)-10,11,12,15-tetrahydro-9H-benzo[5,6]chromeno[2,3-d]pyrido[1,2-a]pyrimidin-14-one] | 55.9 ± 12.7 | 19 ± 2 | 106 ± 7 | 103 ± 10.8 | 110 ± 9.1 | 113 ± 5.8 | 103 ± 5.7 | 113 ± 5.2 | 110 ± 8 | non-hepatotoxic | poor solubility in DMSO at 10 mM and 1 mM |  | 
4 | COc1cccc(C2c3c(nc4n(c3=O)CCCC4)Oc3ccc4ccccc4c32)c1 (stereo not shown) [3Bb, 15-(3′-Methoxyphenyl)-10,11,12,15-tetrahydro-9H-benzo[5,6]chromeno[2,3-d]pyrido[1,2-a]pyrimidin-14-one] | 30.5 ± 2.8 | 43 ± 1.9 | 108 ± 2.4 | 111 ± 8.7 | 105 ± 4.2 | 104 ± 5 | 112 ± 2.3 | 118 ± 7.3 | 128 ± 5 | non-hepatotoxic |  | mixed-type inhibition; also recorded: mixed-type hAChE inhibitor | 380
